Test results: article PMC6834076, “Crystal structures of the Bacillus subtilis prophage lytic cassette proteins XepA and YomS” (Acta Crystallographica. Section D, Structural Biology, 2019)

Legend:
XlyB = target: T1, XlyB (Bacillus subtilis, UniProt O34391); test: thermal shift assay (SYPRO Orange); assay type: binding; details: (GlcNAc)3 concentration for this protein not stated (16 mM with HEWL)
T1 construct: full coding region, N-terminal His6 tag, vector pJOE5751 (plasmid pHWG1184), E. coli JM109, HisTrap; prophage PBSX gene
T1 sequence (O34391 2-317): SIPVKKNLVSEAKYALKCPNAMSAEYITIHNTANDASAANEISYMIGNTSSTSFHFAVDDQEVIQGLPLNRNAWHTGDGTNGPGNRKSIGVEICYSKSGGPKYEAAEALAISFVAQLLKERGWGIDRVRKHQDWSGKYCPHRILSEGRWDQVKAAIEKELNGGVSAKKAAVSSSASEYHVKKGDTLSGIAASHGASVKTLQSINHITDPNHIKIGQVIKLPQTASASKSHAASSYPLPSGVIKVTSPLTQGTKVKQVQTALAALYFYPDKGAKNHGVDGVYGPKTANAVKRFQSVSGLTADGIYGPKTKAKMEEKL

XlyA = target: T2, XlyA (Bacillus subtilis, UniProt P39800); test: thermal shift assay (SYPRO Orange); assay type: binding; details: (GlcNAc)3 concentration for this protein not stated (16 mM with HEWL)
T2 construct: full coding region, N-terminal His6 tag, vector pJOE5751 (plasmid pHWG1185), E. coli JM109, HisTrap; prophage PBSX gene
T2 sequence (P39800 2-297): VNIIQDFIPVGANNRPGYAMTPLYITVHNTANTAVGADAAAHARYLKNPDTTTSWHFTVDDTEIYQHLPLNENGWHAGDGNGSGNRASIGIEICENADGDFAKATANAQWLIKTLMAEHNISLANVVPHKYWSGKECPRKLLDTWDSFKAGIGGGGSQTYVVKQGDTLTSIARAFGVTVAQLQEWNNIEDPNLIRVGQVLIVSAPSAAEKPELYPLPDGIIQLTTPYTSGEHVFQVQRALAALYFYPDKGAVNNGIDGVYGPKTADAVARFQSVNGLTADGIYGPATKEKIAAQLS

Compound: CC(=O)N[C@H]1[C@H](O[C@H]2[C@H](O)[C@@H](NC(C)=O)C(O)O[C@@H]2CO)O[C@H](CO)[C@@H](O[C@@H]2O[C@H](CO)[C@@H](O)[C@H](O)[C@H]2NC(C)=O)[C@@H]1O (some centres unmarked) [triacetylchitotriose]
- dTm (XlyB): 2 °C
- dTm (XlyA): 2 °C
